Results as given in ChEMBL document CHEMBL1201862, “PubChem BioAssay data set” (2004).
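Cultured in 96-well plates, cells were exposed to test compound for 48 hours across five concentrations. Here, GI50 denotes the concentration required for 50% inhibition of growth.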 Active and inactive are the calls of the source. No stated cut-off is given here; in the data, active = GI50 up to about 1.1 µM and inactive = higher.

Legend:
Assay in all cases: inhibition of tumour cell growth, NCI panel, 48 h
[1] = test system: NCI-H23
[2] = test system: SF-268
[3] = test system: RXF 393
[4] = test system: DU-145
[5] = test system: MDA-MB-435
[6] = test system: RPMI-8226
[7] = test system: BT-549
[8] = test system: OVCAR-8
[9] = test system: HOP-62
[10] = test system: COLO 205
[11] = test system: SNB-19
[12] = test system: SW-620
[13] = test system: MDA-MB-231
[14] = test system: UACC-257
[15] = test system: KM12
[16] = test system: IGROV-1
[17] = test system: Malme-3M
[18] = test system: NCI-H460
[19] = test system: TK-10
[20] = test system: SF-295

SMILES | GI50 [1] | GI50 [2] | GI50 [3] | GI50 [4] | GI50 [5] | GI50 [6] | GI50 [7] | GI50 [8] | GI50 [9] | GI50 [10] | GI50 [11] | GI50 [12] | GI50 [13] | GI50 [14] | GI50 [15] | GI50 [16] | GI50 [17] | GI50 [18] | GI50 [19] | GI50 [20]
Cc1ccnc2[nH]c3ccccc3c(=O)c12 | 22.9 µM (inactive) | 18.9 µM (inactive) | 15.6 µM (inactive) | 30.2 µM (inactive) | 19.6 µM (inactive) | 25.9 µM (inactive) | 30.1 µM (inactive) | 27 µM (inactive) | 43.8 µM (inactive) | 19.8 µM (inactive) | 29.6 µM (inactive) | 35.9 µM (inactive) | 38.8 µM (inactive) | 39.4 µM (inactive) | 13.1 µM (inactive) | 17.5 µM (inactive) | 19.2 µM (inactive) | 19 µM (inactive) | 10.1 µM (inactive) | 35.5 µM (inactive)
[N-]=[N+]=Nc1ccc2c(c1)Sc1ccccc1N2CCCCCl | 41.8 µM (inactive) | 41.9 µM (inactive) | 78.9 µM (inactive) | > 100 µM (inactive) | 51.4 µM (inactive) | 23.3 µM (inactive) | 41.6 µM (inactive) | 69.8 µM (inactive) | > 100 µM (inactive) | 18.7 µM (inactive) | > 100 µM (inactive) | 88.3 µM (inactive) | > 100 µM (inactive) | 71.9 µM (inactive) | 53.5 µM (inactive) | > 100 µM (inactive) | 37.1 µM (inactive) | 83.2 µM (inactive) | > 100 µM (inactive) | > 100 µM (inactive)
CN(C)c1ccc(/C=c2/c3ccccc3n3c2cc(/C=C/c2ccccc2)[n+]3C)cc1 | 0.0783 µM (active) | 0.114 µM (active) | 0.0538 µM (active) | 0.1 µM (active) | 0.135 µM (active) | 0.0208 µM (active) | 0.08 µM (active) | 0.0773 µM (active) | 0.0893 µM (active) | 0.073 µM (active) | 0.217 µM (active) | 0.0916 µM (active) | 0.261 µM (active) | 0.339 µM (active) | 0.167 µM (active) | 0.145 µM (active) | 0.233 µM (active) | 0.185 µM (active) | 0.393 µM (active) | 0.225 µM (active)
COc1cc(C(c2cc3c(cc2O)OCO3)N2CCCCC2)cc(OC)c1OC (stereo not given) | 15.2 µM (inactive) | 15.8 µM (inactive) | 13.2 µM (inactive) | 17.5 µM (inactive) | 5.02 µM (inactive) | 2.96 µM (inactive) | 12 µM (inactive) | 13.2 µM (inactive) | 30 µM (inactive) | 13.4 µM (inactive) | 20.6 µM (inactive) | 4.57 µM (inactive) | 15 µM (inactive) | 12.5 µM (inactive) | 18.2 µM (inactive) | 17.7 µM (inactive) | 12.8 µM (inactive) | 21.8 µM (inactive) | 17 µM (inactive) | 41.5 µM (inactive)
[N-]=[N+]=C(C(=O)OCC#CCOC(=O)C(=[N+]=[N-])S(=O)(=O)c1ccccc1)S(=O)(=O)c1ccccc1 | > 10 µM (inactive) | > 10 µM (inactive) | > 10 µM (inactive) | > 10 µM (inactive) | > 10 µM (inactive) | > 10 µM (inactive) | > 10 µM (inactive) | > 10 µM (inactive) | > 10 µM (inactive) | > 10 µM (inactive) | > 10 µM (inactive) | > 10 µM (inactive) | > 10 µM (inactive) | > 10 µM (inactive) | > 10 µM (inactive) | > 10 µM (inactive) | > 10 µM (inactive) | > 10 µM (inactive) | > 10 µM (inactive) | > 10 µM (inactive)
ONCCCn1cnc2c(NC3CC3)ncnc21 | > 100 µM (inactive) | > 100 µM (inactive) | > 100 µM (inactive) | > 100 µM (inactive) | > 100 µM (inactive) | > 100 µM (inactive) | > 100 µM (inactive) | > 100 µM (inactive) | > 100 µM (inactive) | > 100 µM (inactive) | > 100 µM (inactive) | > 100 µM (inactive) | > 100 µM (inactive) | > 100 µM (inactive) | > 100 µM (inactive) | > 100 µM (inactive) | > 100 µM (inactive) | > 100 µM (inactive) | > 100 µM (inactive) | > 100 µM (inactive)
C=C1C(=O)OC2/C=C(\CO)CC/C=C(\CO)CC(OC(=O)C(C)C)C12 (stereo not given) | 19.3 µM (inactive) | 13.9 µM (inactive) | 5.83 µM (inactive) | 12.7 µM (inactive) | 8.75 µM (inactive) | 3.37 µM (inactive) | 7.94 µM (inactive) | 20 µM (inactive) | 19.2 µM (inactive) | 2.16 µM (inactive) | 21.5 µM (inactive) | 4.41 µM (inactive) | 20.1 µM (inactive) | 12.2 µM (inactive) | 18.2 µM (inactive) | 15.7 µM (inactive) | 2.08 µM (inactive) | 20.9 µM (inactive) | 3.94 µM (inactive) | 21.3 µM (inactive)
Nc1csc(-c2scc3c2OCCO3)c1N | 15.5 µM (inactive) | 18.8 µM (inactive) | 17.9 µM (inactive) | 19.8 µM (inactive) | 15.5 µM (inactive) | 16.9 µM (inactive) | 16.5 µM (inactive) | 16.1 µM (inactive) | 15.6 µM (inactive) | 28.8 µM (inactive) | 32.7 µM (inactive) | 26.2 µM (inactive) | 20.6 µM (inactive) | 16.7 µM (inactive) | 20.4 µM (inactive) | 22.5 µM (inactive) | 16 µM (inactive) | 22.5 µM (inactive) | 33.1 µM (inactive) | 17.7 µM (inactive)
CSc1ccccc1P(CCP(c1ccccc1SC)c1ccccc1SC)c1ccccc1SC | 1 µM (active) | 36.4 µM (inactive) | 30.8 µM (inactive) | 54.5 µM (inactive) | 31.5 µM (inactive) | 4.47 µM (inactive) | 38.7 µM (inactive) | 8.73 µM (inactive) | 8.61 µM (inactive) | 0.697 µM (active) | 35.4 µM (inactive) | 16.7 µM (inactive) | 8.81 µM (inactive) | 13.5 µM (inactive) | 18.6 µM (inactive) | 0.8 µM (active) | 29.9 µM (inactive) | 3.13 µM (inactive) | > 69 µM (inactive) | 7.08 µM (inactive)
O=C(O)c1ccn(-c2cccc(-n3ccc(C(=O)O)n3)n2)n1 | > 100 µM (inactive) | > 100 µM (inactive) | > 100 µM (inactive) | > 100 µM (inactive) | > 100 µM (inactive) | > 100 µM (inactive) | > 100 µM (inactive) | > 100 µM (inactive) | > 100 µM (inactive) | > 100 µM (inactive) | > 100 µM (inactive) | > 100 µM (inactive) | > 100 µM (inactive) | > 100 µM (inactive) | > 100 µM (inactive) | > 100 µM (inactive) | > 100 µM (inactive) | > 100 µM (inactive) | > 100 µM (inactive) | > 100 µM (inactive)
O=c1oc2nc(-c3ccccc3)cc(C(F)(F)F)c2n1Cc1ccccc1 | 6.14 µM (inactive) | > 25 µM (inactive) | 2.71 µM (inactive) | 11.3 µM (inactive) | 0.659 µM (active) | 4.41 µM (inactive) | 19.7 µM (inactive) | 42.4 µM (inactive) | 12.2 µM (inactive) | 7.82 µM (inactive) | 6.52 µM (inactive) | 6.5 µM (inactive) | > 24.4 µM (inactive) | > 37.8 µM (inactive) | 2.84 µM (inactive) | 13.4 µM (inactive) | 1.89 µM (inactive) | > 100 µM (inactive) | 46.6 µM (inactive) | 5.12 µM (inactive)
COc1ccc(Cc2n[nH]c(Nc3ccc(Br)cc3)nc2=O)cc1OC | > 100 µM (inactive) | 88.5 µM (inactive) | > 100 µM (inactive) | > 100 µM (inactive) | 14.2 µM (inactive) | > 100 µM (inactive) | 27 µM (inactive) | > 100 µM (inactive) | 42.9 µM (inactive) | > 100 µM (inactive) | > 100 µM (inactive) | > 100 µM (inactive) | 50.1 µM (inactive) | > 100 µM (inactive) | 36.6 µM (inactive) | > 100 µM (inactive) | 47.2 µM (inactive) | > 100 µM (inactive) | > 100 µM (inactive) | > 100 µM (inactive)
CCOc1ccc(-n2c(=O)c3nn4c(=O)n(-c5ccc(OCC)cc5)c(=O)c4nn3c2=O)cc1 | > 100 µM (inactive) | > 100 µM (inactive) | 44.6 µM (inactive) | > 100 µM (inactive) | > 100 µM (inactive) | > 100 µM (inactive) | 64.6 µM (inactive) | > 100 µM (inactive) | 77.8 µM (inactive) | > 100 µM (inactive) | 63 µM (inactive) | > 100 µM (inactive) | 71.8 µM (inactive) | > 100 µM (inactive) | > 100 µM (inactive) | > 100 µM (inactive) | > 100 µM (inactive) | > 100 µM (inactive) | > 100 µM (inactive) | 43.3 µM (inactive)
CCCCc1c2c(c(C)c3c1C(=O)OC3)Oc1ccccc1O2 | 2.9 µM (inactive) | 1.64 µM (inactive) | 0.975 µM (active) | 2.51 µM (inactive) | 0.173 µM (active) | 1.25 µM (inactive) | 6.46 µM (inactive) | 3.67 µM (inactive) | 1.23 µM (inactive) | 0.855 µM (active) | 3.95 µM (inactive) | 1.02 µM (active) | 2.57 µM (inactive) | 0.428 µM (active) | 0.815 µM (active) | 0.608 µM (active) | 0.596 µM (active) | 0.369 µM (active) | 2.29 µM (inactive) | 0.467 µM (active)
